Reference: EP4644391A1, “NOVEL PHENYLQUINOLONE COMPOUND HAVING ANTIBACTERIAL AND ANTICANCER FUNCTIONS, AND PREPARATION THEREOF” (Alphamol Science Ltd (Shanghai), priority 2022, dated 2024)
In brackets after ≈: the same amount, converted by molar mass.

Tested on: Staphylococcus aureus ATCC43300
Test: Resistance test of bacteria against compounds (serial passage, 21 days)
Assay type: cell-based
Conditions: Staphylococcus aureus, ATCC43300, 504 h, read-out: MIC at the end of the experiment
Method: This example provides a resistance test of bacteria against compounds, and the specific experimental method is as follows. • 1. […] It was ensured that among the 6 final concentrations of the drug diluted into the wells, some were higher than the original MIC of the bacteria and some were lower than the original MIC of the bacteria. • 2. Preparation of bacterial liquid: 10 mL of culture medium was taken and added to a sterilized plate using a pipette, then 100 µL of the above-mentioned passaged bacterial liquid was added, and mixed well for later use. • 3. The above-mentioned diluted bacterial liquid was taken and added to a 96-well plate using a pipette, 180 µL per well, 3 wells per group, 6 groups in total. 20 µL of drug solution was added to each well (note: it is necessary to replace the pipette tip each time the drug is added), so that the final drug concentrations were 2 µg/mL, 1 µg/mL, 0.8 µg/mL, 0.4 µg/mL, 0.2 µg/mL, 0.1 µg/mL, respectively. The well with 200 µL of diluted bacterial liquid was used as the positive control well, and the well with 200 µL of culture medium was used as the negative control well.
The test object was Staphylococcus aureus (S. aureus). The specific results are shown in FIG1.

## CN[C@H](CC(C)C)C(=O)N[C@H]1C(=O)N[C@@H](CC(N)=O)C(=O)N[C@H]2C(=O)N[C@H]3C(=O)N[C@H](C(=O)N[C@H](C(=O)O)c4cc(O)cc(O)c4-c4cc3ccc4O)[C@H](O)c3ccc(c(Cl)c3)Oc3cc2cc(c3O[C@@H]2O[C@H](CO)[C@@H](O)[C@H](O)[C@H]2O[C@H]2C[C@](C)(N)[C@H](O)[C@H](C)O2)Oc2ccc(cc2Cl)[C@H]1O [vancomycin]
  MIC: 4 µg/mL (≈ 2.76 µM)
